Test results as given in ChEMBL document CHEMBL4196240, “Structurally Diverse Sesquiterpenoids from the Endangered Ornamental Plant Michelia shiluensis” (J Nat Prod, 2018).
pIC50: −log10 of the molar value.

What was measured:
MCF7 = assay: Cytotoxicity against human MCF7 cells after 24 hrs by MTS assay; type: functional, cell-based; conditions: MCF7, 24 h
A549 = assay: Cytotoxicity against human A549 cells after 24 hrs by MTS assay; type: functional, cell-based; conditions: A549, 24 h
[1] = biological target: T1, Tyrosine-protein phosphatase non-receptor type 1 (Homo sapiens, UniProt P18031); assay: Inhibition of recombinant human GST-tagged PTP1B catalytic domain using para-nitrophenyl phosphate as substrate
T1 sequence (P18031 whole entry): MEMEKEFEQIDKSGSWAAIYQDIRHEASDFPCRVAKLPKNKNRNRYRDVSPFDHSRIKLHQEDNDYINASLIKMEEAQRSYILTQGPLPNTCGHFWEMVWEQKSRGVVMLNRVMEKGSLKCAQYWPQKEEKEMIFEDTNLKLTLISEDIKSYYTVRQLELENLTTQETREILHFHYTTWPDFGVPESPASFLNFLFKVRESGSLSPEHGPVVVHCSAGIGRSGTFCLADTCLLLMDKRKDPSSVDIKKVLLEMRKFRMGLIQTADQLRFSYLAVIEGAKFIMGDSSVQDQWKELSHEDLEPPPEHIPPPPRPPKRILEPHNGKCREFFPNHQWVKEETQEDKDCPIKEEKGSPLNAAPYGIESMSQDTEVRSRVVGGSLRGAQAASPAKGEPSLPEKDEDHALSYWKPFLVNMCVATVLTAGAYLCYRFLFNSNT

Compound	pIC50 (MCF7)	pIC50 (A549)	pIC50 [1]
C=C1C(=O)O[C@H]2[C@H]1[C@H](OC(C)=O)C/C(C)=C/CC[C@@]1(C)O[C@@H]21	5.82	5.14	–
CC[C@]1(O)C(=O)O[C@H]2[C@H]1[C@H](OC(C)=O)C/C(C)=C/CC[C@@]1(C)O[C@@H]21	4.34	< 3.70	–
CC(=O)CC[C@@H]1C[C@@]2(OC1(C)C)C(=O)CC[C@@]2(C)O	–	–	4.33
COc1cccc2c1C(=O)c1c(O)c3c(c(O)c1C2=O)C[C@@](O)(C(=O)CO)C[C@@H]3O[C@H]1C[C@H](N)[C@H](O)[C@H](C)O1 [DOXORUBICIN]	–	6.68	–
